From publication PMC12190468, “Designing New Chimeric Proline-Rich Antimicrobial Peptides to Enhance Efficacy Toward the ESKAPE+E: Beyond Sequence Extension” (Biomolecules, 2025)
Ends that are not written are not given here.

Legend:
S. aureus ATCC 25923 [1] = type: cell-based, Staphylococcus aureus; conditions: ATCC 25923, 18 h
Method: (§1) Reference bacterial strains, including Escherichia coli BW25113, Escherichia coli ATCC 25922, Klebsiella pneumoniae ATCC 700603, Acinetobacter baumannii ATCC 19606, Enterobacter cloacae ATCC 13047, Pseudomonas aeruginosa ATCC 27853, Staphylococcus aureus ATCC 25923, and Enterococcus faecium ATCC 19434, were obtained from the American Type Culture Collection (ATCC) in Manassas, VA, USA. Strains were stored at −80 °C in glycerol stocks until use. For all experiments, cultures were grown in sterile MHB (Difco Inc., Becton Dickinson, Sparks, MD, USA). Overnight cultures were incubated at 37 °C for approximately 18 h under shacking (140 rpm, then diluted 1:30 in fresh MHB and again shaken at 140 rpm for ~2 h to reach the mid-log phase (OD ~0.3 at 600 nm). The bacterial cultures were then diluted to the desired concentration for experiments. E. coli BW25113 ΔsbmA (Keio collection) was grown in MHB with the addition of 50 μg/mL kanamycin (Sigma, Milan, Italy).
(§2) Antimicrobial activity was assessed using the Minimum Inhibitory Concentration (MIC) assay, following CLSI guidelines. Briefly, peptides were serially diluted in MHB across a 96-well round-bottom plate (Sarstedt, Milan, Italy), starting with 50 μL in the first well. A mid-log bacterial culture was diluted to 5 × 10^5 CFU/mL, and 50 μL of this suspension was added to each well (except the MHB sterility control wells). […] MIC values were confirmed by at least three independent experiments (n ≥ 3).

E. coli BW 25113 [2] = type: cell-based, Escherichia coli; conditions: ≥99.9% reduction of viability, after 18 h at 37 °C, mode of at least three independent experiments
Method: as §1
(§3) The Minimal Bactericidal Concentration (MBC) was determined by plating 25 μL from clear MIC wells onto MH-agar Petri dishes (Difco Inc., Becton Dickinson, Sparks, MD, USA), followed by overnight incubation at 37 °C. The MBC was the lowest compound concentration, reducing bacterial viability by ≥99.9%. Results were based on at least three independent experiments (n ≥ 3).

E. coli ATCC 25922 [3] = type: cell-based, Escherichia coli; conditions: ATCC 25922, 18 h
Method: as §1, §3

E. coli BW 25113 ΔsbmA [4] = type: cell-based, Escherichia coli; conditions: ≥99.9% reduction of viability, after 18 h at 37 °C, mode of at least three independent experiments
Method: as §1, §3

E. faecium ATCC 19434 [5] = type: cell-based, Enterococcus faecium; conditions: ATCC 19434, 18 h
Method: as §1, §3

P. aeruginosa ATCC 27853 [6] = type: cell-based, Pseudomonas aeruginosa; conditions: ATCC 27853, 18 h
Method: as §1, §3

E. cloacae ATCC 13047 [7] = type: cell-based, Enterobacter cloacae; conditions: ATCC 13047, 18 h
Method: as §1, §2

E. coli BW 25113 [8] = type: cell-based, Escherichia coli; conditions: full MHB, 18 h at 37 °C, mode of at least three independent experiments
Method: as §1, §2

E. coli ATCC 25922 [9] = type: cell-based, Escherichia coli; conditions: ATCC 25922, 18 h; remark: listed apart in the source
Method: as §1, §2

E. coli BW 25113 ΔsbmA [10] = type: cell-based, Escherichia coli; conditions: full MHB, 18 h at 37 °C, mode of at least three independent experiments
Method: as §1, §2

E. cloacae ATCC 13047 [11] = type: cell-based, Enterobacter cloacae; conditions: ATCC 13047, 18 h; remark: listed apart in the source
Method: as §1, §3

S. aureus ATCC 25923 [12] = type: cell-based, Staphylococcus aureus; conditions: ATCC 25923, 18 h; remark: listed apart in the source
Method: as §1, §3

E. faecium ATCC 19434 [13] = type: cell-based, Enterococcus faecium; conditions: ATCC 19434, 18 h; remark: listed apart in the source
Method: as §1, §2

P. aeruginosa ATCC 27853 [14] = type: cell-based, Pseudomonas aeruginosa; conditions: ATCC 27853, 18 h; remark: listed apart in the source
Method: as §1, §2

A. baumannii ATCC 19606 [15] = type: cell-based, Acinetobacter baumannii; conditions: ATCC 19606, 18 h
Method: as §1, §2

[16] = system: K. pneumoniae ATCC 700603; type: cell-based, Klebsiella pneumoniae; conditions: ATCC 700603, 18 h
Method: as §1, §3

A. baumannii ATCC 19606 [17] = type: cell-based, Acinetobacter baumannii; conditions: ATCC 19606, 18 h; remark: listed apart in the source
Method: as §1, §3

A549 cells = type: cell-based, human
Method: The human lung carcinoma epithelial cell line (A549) was obtained from the American Type Culture Collection (ATCC) (Manassas, VA, USA). A549 cells were cultured in adhesion flasks (EuroClone, Milan, Italy) with complete Dulbecco’s MEM (DMEM, EuroClone, Milan, Italy) containing high glucose, supplemented with 100 U/mL penicillin, […] streptomycin (Sigma, Milan, Italy), 2 mM L-glutamine, and 10% FBS (Life Technologies, Carlsbad, CA, USA). Cells were incubated at 37 °C with 5% CO2.
Cytotoxicity in A549 cells was assessed using the MTT assay. After reaching confluence, cells were counted using a Bürker–Türk chamber and diluted to 2 × 10^5 cells/mL in DMEM. A total of 100 μL of this suspension was seeded into 96-well plates (Sarstedt, Milan, Italy) and incubated overnight at 37 °C with 5% CO2. The next day, the spent medium was replaced with 100 μL of fresh DMEM medium containing peptide or water at the desired concentration. After 20 h of incubation, 25 μL of 1 mg/mL MTT (Sigma, Milan, Italy) in PBS was added, and the plates were incubated for 4 h in the dark. […] After overnight incubation, absorbance was measured at 570 nm using a Nanoquant Infinite-M200Pro plate reader (Tecan Trading AG, Switzerland). The cytotoxicity was calculated by comparing the OD of treated samples with that of untreated controls. […]

[18] = system: K. pneumoniae ATCC 700603; type: cell-based, Klebsiella pneumoniae; conditions: ATCC 700603, 18 h; remark: listed apart in the source
Method: as §1, §2

| Sequence | MIC (S. aureus ATCC 25923 [1]) | MBC (E. coli BW 25113 [2]) | MBC (E. coli ATCC 25922 [3]) | MBC (geometric mean) (E. coli ATCC 25922 [3]) | MBC (E. coli BW 25113 ΔsbmA [4]) | MBC (E. faecium ATCC 19434 [5]) | MBC (P. aeruginosa ATCC 27853 [6]) | MBC (geometric mean) (P. aeruginosa ATCC 27853 [6]) | MIC (E. coli BW 25113 [8]) | MIC (E. coli ATCC 25922 [9]) | MIC (geometric mean) (E. coli ATCC 25922 [9]) | MIC (E. coli BW 25113 ΔsbmA [10]) | MBC (E. cloacae ATCC 13047 [11]) | MBC (S. aureus ATCC 25923 [12]) | MBC (geometric mean) (S. aureus ATCC 25923 [12]) | MIC (P. aeruginosa ATCC 27853 [14]) | MIC (geometric mean) (P. aeruginosa ATCC 27853 [14]) | MIC (A. baumannii ATCC 19606 [15]) | MBC [16] | MBC (geometric mean) [16] | other results |
| --- | --- | --- | --- | --- | --- | --- | --- | --- | --- | --- | --- | --- | --- | --- | --- | --- | --- | --- | --- | --- | --- |
| WRIRRRWPRLPRPRWRPRFPPP [Peptide B7-T6] | 16 µM | 2 µM | 0.5 µM | 0,6 µM | 2 µM | >64 µM | 32 µM | 25,4 µM | 1 µM | 0.5 µM | 0,6 µM | 1 µM | 4 µM | 32 µM | 25,4 µM | 8 µM | 12,7 µM | 1 µM | – | – | MIC (E. cloacae ATCC 13047 [7]): 2 µM; MIC (geometric mean) (E. cloacae ATCC 13047 [7]): 2,5 µM; MIC (E. faecium ATCC 19434 [13]): 16 µM |
| WRIRRRWPRLPRPRWRPRFPPPFPIPR [Peptide B7-T11] | 16 µM | 1 µM | 2 µM | 1,3 µM | 2 µM | 32 µM | 16 µM | 20,2 µM | 1 µM | 2 µM | 1,3 µM | 1 µM | – | 16 µM | 20,2 µM | 16 µM | 12,7 µM | 1 µM | 4 µM | 3,2 µM | MIC (geometric mean) (S. aureus ATCC 25923 [1]): 12,7 µM; MBC (A. baumannii ATCC 19606 [17]): 2 µM; MBC (geometric mean) (A. baumannii ATCC 19606 [17]): 1,6 µM; MBC (geometric mean) (E. faecium ATCC 19434 [5]): 40,3 µM; Cytotoxicity toward A549 cells (MTT) at 64 µM (A549 cells): cytotoxic; MIC (E. faecium ATCC 19434 [13]): 4 µM; MIC (geometric mean) (E. faecium ATCC 19434 [13]): 5,0 µM; MIC (geometric mean) (A. baumannii ATCC 19606 [15]): 1,3 µM |
| WRIRRRWPRLPRPRWRPWFPPR [Peptide B7-L6] | – | 1 µM | 4 µM | 3,2 µM | 2 µM | 32 µM | – | – | – | 4 µM | 3,2 µM | 2 µM | 2 µM | 8 µM | 10,1 µM | 4 µM | 5,0 µM | 2 µM | 4 µM | 3,2 µM | MBC (A. baumannii ATCC 19606 [17]): 2 µM; MBC (geometric mean) (A. baumannii ATCC 19606 [17]): 1,6 µM; MBC (geometric mean) (E. faecium ATCC 19434 [5]): 40,3 µM; MBC (geometric mean) (E. cloacae ATCC 13047 [11]): 2,5 µM; MIC [18]: 2 µM; MIC (geometric mean) [18]: 2,5 µM; MIC (geometric mean) (A. baumannii ATCC 19606 [15]): 1,6 µM |
| WRIRRRWPRLPRPRWRPWFPPRFPIPR [Peptide B7-L11] | – | 2 µM | 2 µM | 2,5 µM | 2 µM | 16 µM | – | – | 1 µM | 2 µM | 2,5 µM | 2 µM | 2 µM | – | – | 8 µM | 6,3 µM | – | 4 µM | 3,2 µM | MIC (geometric mean) (S. aureus ATCC 25923 [1]): 5,0 µM; MBC (geometric mean) (E. cloacae ATCC 13047 [11]): 2,5 µM; MIC [18]: 2 µM; MIC (geometric mean) [18]: 2,5 µM |
